{
  "source": "patent US20060105061A1",
  "about": "“Galenical composition” (priority 2004, published 2006)",
  "key": {"[1]": {"tested_on": "LNA-loaded hepatocytes", "assay": "Metal-induced lipid peroxidation (MDA) in LNA-loaded hepatocytes", "assay_type": "cell-based, Wistar rats", "conditions": "Rattus norvegicus, Hepatocyte, LNA-loaded cells, 100 μM, read-out: IC50 of lipid peroxidation inhibition", "from_the_text": "(§1) Isolation and culture of hepatocytes: Male Wistar rats weighing 180 to 210 g were fed with standard chow and water ad libitum. Hepatocytes were isolated by collagenase perfusion method as described by Wolkoff et al. (J Clin Invest 1987; 79: 1259-1268). Briefly, the liver was perfused with collagenase type IV (Sigma Chemical, St. Louis, Mo., USA) and isolated hepatocytes were suspended in culture medium consisting of Waymouth's 752/1 (Gibco, Grand Island, N.Y., USA) containing 5% heat-inactivated fetal bovine serum, 2.5 mM CaCl2, 5 μg/mL bovine insulin (Sigma), 100 U/mL penicillin and 0.1 mg/mL streptomycin. The isolated cells were further fractionated on Percoll density gradients to obtain a viability higher than 98%, as ascertained by trypan blue. Approximately 1.5×10^6 cells in 3 mL or approximately 5.0×10^6 cells in 10 mL in individual 60- or 100-mm diameter Lux culture dishes were placed in an incubator in an atmosphere of […] at 37° C., and then separately cultured. After a 9 hr incubation, the monolayer of hepatocytes was cultured for an additional 12 hr in the medium containing 1.0 mM α-linolenic acid (LNA)-bovine serum albumin (BSA). Seventy percent or more of added LNA was adsorbed by cultured cells after incubation.\nAfter incubation for 6 hr, the medium was separated. Malonyldialdehyde (MDA) in the medium was assessed by a slight modification of the Uchiyama and Mihara method (Anal Biochem 1978; 86: 271-278). Briefly, to 0.1 ml of the medium in a 12 ml glass tube, 3 ml of 1% […] and 1 ml of 0.67% thiobarbituric acid were added and heated at 100° C. for 45 min. After cooling in ice water, 4 ml of n-butanol was added and the resulting mixture was shaken and then centrifuged to separate the butanol layer. The fluorescence intensity in the butanol layer was assayed at the excitation and emission wavelengths of 515 and 553 nm, respectively. The auto-oxidation products of fatty acid in the medium were within 0.3 nmol and were used as blank. […]"}, "[2]": {"tested_on": "lysosomal fractions", "assay": "Lysosome fragility test: LDH leakage and β-galactosidase release with metal ions", "assay_type": "biochemical, Wistar rats", "conditions": "YHK at the higher concentration, p<0.05", "experimental": "(§2) Preparation of lysosomal fractions: After homogenizing in 9 volumes of 0.3 M sucrose, the liver was centrifuged at 450×g for 10 min. The supernatants were again centrifuged at 3500×g for 10 min, and the lysosome-containing supernatant was centrifuged at 10000×g for 10 min. The pellets were washed and centrifuged at 10000×g for 10 min, and resuspended in the sucrose buffer to a protein concentration of 15 mg/ml.\nLysosome fragility test: The fraction was incubated with the test compound and each of metal ions and β-galactosidase activity was measured in accordance with the method of Olsson et al. (Anal Cell Pathol 1990; 2: 179-188), using 4-methylumbelliferyl-β-galactosidase as a substrate. The results were expressed as percentage of total β-galactosidase released. Lactate dehydrogenase leakage was also measured in the culture medium in accordance with the method of Hillaire et al. (Hepatology 1995; 22: 82-87)."}, "[3]": {"tested_on": "normal hepatocytes", "assay": "Metal-induced lipid peroxidation (MDA) in normal cultured hepatocytes", "assay_type": "cell-based, Wistar rats", "conditions": "for IC50: Rattus norvegicus, Hepatocyte, normal hepatocytes, 100 μM, read-out: IC50 of lipid peroxidation inhibition", "from_the_text": "as §1\nAfter incubation for 6 hr, the medium was separated. Malonyldialdehyde (MDA) in the medium was assessed by a slight modification of the Uchiyama and Mihara method (Anal Biochem 1978; 86: 271-278). Briefly, to 0.1 ml of the medium in a 12 ml glass tube, 3 ml of 1% […] and 1 ml of 0.67% thiobarbituric acid were added and heated at 100° C. for 45 min. After cooling in ice water, 4 ml of n-butanol was added and the resulting mixture was shaken and then centrifuged to separate the butanol layer. The fluorescence intensity in the butanol layer was assayed at the excitation and emission wavelengths of 515 and 553 nm, respectively. The auto-oxidation products of fatty acid in the medium were within 0.3 nmol and were used as blank. Dimethyl sulfoxide (20 μl) was diluted in 2000 μl of the culture medium, including control cultures of metal ions only in the absence of the test compounds and the final concentration of 1% dimethyl sulfoxide had no measurable effect on lipid peroxidation in basal cultured hepatocytes."}, "[4]": {"tested_on": "lysosomal fractions", "assay": "Oxidative damage tests of lysosomes: enzyme release with AAPH or AMVN radical generators", "assay_type": "biochemical, Wistar rats", "conditions": "10^−4M, ± SE", "experimental": "as §2\nOxidative damage tests of lysosomes: Assays for the release of acid phosphatase and β-N-acetylglucosaminidase from lysosomes were carried out by incubating lysosomal suspensions in the presence of test compounds. […] For this experiment, lysosomal suspensions were preincubated in the presence of 1 mM of the test compounds for 30 min and centrifuged at 12000×g for 10 min. Then the pellets were washed in 0.15 M KCl-5 mM Tris buffer (pH 7.4), centrifuged and re-suspended in 0.1M acetate buffer (pH 5.5)."}},
  "note": "Read-outs that look alike come from different tables or passages of the source.",
  "data": [
    {"compound": "COc1cc(C2Oc3cc([C@H]4Oc5cc(O)cc(O)c5C(=O)[C@@H]4O)ccc3OC2CO)ccc1O", "note": "(stereo partly drawn) [Sylibin, sylibin]", "values": [
      {"measurement": "IC50", "setting": "[1]; CuSO4-induced", "result": "16.8 ± 1.5", "unit": "µM"},
      {"measurement": "IC50", "setting": "[1]; FeSO4-induced", "result": "79.9 ± 9.2", "unit": "µM"},
      {"measurement": "IC50", "setting": "[1]; VCl3-induced", "result": "17.3 ± 1.2", "unit": "µM"},
      {"measurement": "β-galactosidase release from lysosomes", "setting": "[2]", "result": "significantly decreased"},
      {"measurement": "IC50", "setting": "[3]; CuSO4-induced", "result": "7.3 ± 0.3", "unit": "µM"},
      {"measurement": "IC50", "setting": "[3]; FeSO4-induced", "result": "18.9 ± 3.2", "unit": "µM"},
      {"measurement": "IC50", "setting": "[3]; VCl3-induced", "result": "10.8 ± 1.2", "unit": "µM"},
      {"measurement": "MDA generation in the medium", "setting": "[3]; metal catalysts, up to 6 hr, p<0.05", "result": "significantly decreased"},
      {"measurement": "Acid phosphatase release, enzyme activity", "setting": "[4]; AAPH-induced release", "result": "51.9 ± 5.6 % of control"},
      {"measurement": "β-N-acetylglucosaminidase release, enzyme activity", "setting": "[4]; AAPH-induced release", "result": "54.6 ± 4.7 % of control"},
      {"measurement": "Acid phosphatase release, enzyme activity", "setting": "[4]; AMVN-induced release", "result": "83.9 ± 10.4 % of control"},
      {"measurement": "β-N-acetylglucosaminidase release, enzyme activity", "setting": "[4]; AMVN-induced release", "result": "77.3 ± 7.4 % of control"}
    ]}
  ]
}
